Experiments:
[1] = test system: N13 microglial cells; experiment: N13 cell viability (CellTiter 96 AQueous One, MTS), ligands alone; assay type: cell-based; settings: for cell viability: 60 min, alone
Protocol: Starting from these observations, since this double effect could be a suitable strategy for the treatment of chronic neurodegenerative diseases, in which neuroinflammation plays a crucial role, these compounds were tested on an in vitro model of neuroinflammation in comparison with the reference compounds. The experiments were performed using N13 microglial cells. The colorimetric method CellTiter 96® AQueous One Solution Cell Proliferation assay was used to determine the number of live cells in cytotoxicity or proliferation assays. The tetrazole compound MTS was bio-reduced by the cells into formazan, a colored product soluble in the cellular medium. The percentage of cell viability was analyzed through an absorbance reading at 492 nm. The concentrations of ligands were chosen based on the results of binding assays. Specifically, lower, similar, and higher concentrations than the Ki value were used.
Experiments were performed in triplicate.

[2] = test system: N13 microglial cells; experiment: N13 cell viability, ligand pretreatment 60 min then CK cocktail 48 h (CK1δ inhibition protocol); assay type: cell-based; settings: for cell vitality: CK cocktail alone 69% ± 0.3 vs. control
[3] = test system: N13 cell line; experiment: Griess assay, nitrite production (antioxidant effect); assay type: cell-based; settings: compound 2 4500 nM, ZM241385 10 nM
Excerpt: In addition, since oxidative stress has received extensive attention as one important entry point in the pathogenesis of neurodegenerative diseases, the potential antioxidant profile of compounds 1 and 2 was investigated. Oxidative stress and neuroinflammation play synergistic roles in the promotion of neurodegenerative disease progression. During a CNS insult, there is an activation of microglial cells, which stimulate immune responses to instigate tissue repair. If the triggering cause of the immune response is eradicated, the immune response resolves, but if the initial stress persists, it will lead to an overproduction of neurotoxic factors such as chemokines and proinflammatory cytokines such as Tumor Necrosis Factor-α (TNF-α) and Interleukin-1β (IL-1β). This pathological state will lead to an overproduction of ROS and a state of oxidative stress. High levels of ROS inactivate or damage proteins, leading to cellular degeneration and death. Furthermore, ROS can activate proinflammatory pathways, further promoting a harmful environment for vulnerable neurons. In light of this, the potential antioxidant capacity of compounds was studied. […] The combination of anti-inflammatory and antioxidant activities makes compound 2 particularly appealing in counteracting two of the factors involved in the pathogenesis of neurodegenerative pathologies.
The N13 cell line was introduced into a 96-well UV-VIS transparent plate at a population of 1 × 10^4 cells per well in 98 μL of DMEM and incubated overnight. […] After 24 h of incubation, the media from each well was transferred into another 96-well plate, and then 50 µL of the sulphanilamide solution was placed into the wells. After 10 min of incubation at room temperature (rt), 50 µL of the NED solution was dispensed to all wells, and the plate was incubated at rt for an additional 5–10 min. After half an hour, absorbance was measured in the microplate reader GENiosPro using a 520–550 nm filter. All measurements were reproduced in 3–5 replicates. The nitric oxide formation was investigated by measuring nitrite (NO^2−), which is one of two primary breakdown products of NO. A nitrite standard reference curve was used for quantitative evaluation of the concentration of NO^2− in samples.

[4] = target: human recombinant A2AAR; design: method as in PMID 37259317; settings: cited from earlier work; for Ki: [3H]NECA, membranes from CHO cells stably transfected, means ± standard errors, read-out: KiA2A
[5] = test system: N13 microglial cells; experiment: N13 cell viability, CK cocktail 48 h pretreatment then ligand (A2AAR antagonist protocol); settings: 60 min
Protocol: Given the nature of compounds, dual A2A/CK1δ anta-inhibitors, their neuroprotective effect against a neuroinflammatory insult was investigated following two different approaches aimed at studying the antagonist activity on the A2AAR and the inhibitor effect on CK1δ. […] The concentrations used were 35, 65, and 400 µM at 60 min of incubation.
N13 cells were plated in 96-well plates at the confluence of 1 × 10^4 cells/well and incubated overnight. Cells were divided into two groups in order to study the activity of compounds on A2AAR and CK1δ (Scheme 1). […] Cells of the second group were pretreated with 2 µL at different concentrations of understudy ligand, or the reference compound PF670462, for 30 or 60 min and then with further addition of a proinflammatory cocktail of cytokines for 48 h (Scheme 1). After treatment, 20 µL of CellTiter 96® AQueous One Solution Reagent was added to each well to a final volume of 100 µL. After 1 h of incubation, absorbance was measured at 492 nm in the microplate reader GENiosPro. Cell viability was estimated as the relation between the OD of treated cells and the OD of untreated cells in percentage. An untreated control and a control with the solvent were run. Experiments were performed in triplicate.

[6] = target: human recombinant A1AR; design: method as in PMID 37259317; settings: [3H]CCPA, membranes from CHO cells stably transfected; means ± standard errors; read-out: KiA1; cited from earlier work
[7] = test system: CK1δ; design: method as in PMID 37259317; settings: cited from earlier work; for IC50: enzymatic inhibition
[8] = target: human recombinant A3AR; design: method as in PMID 37259317; settings: [3H]HEMADO, membranes from CHO cells stably transfected; means ± standard errors; read-out: KiA3; cited from earlier work

Nc1nccc(-c2c(-c3ccc(F)cc3)ncn2C2CCCCC2)n1 [PF-670462, reference compound]
cell viability ([1]; 0.05 µM): does not affect cell viability | cell viability ([1]; 0.1 µM): 75% ± 1.4 | cell viability ([1]; 1 µM): 60% ± 2.9 | cell vitality ([2]; 0.05 µM 60 min before CK cocktail 48 h): 96% ± 3.1 | cell vitality ([2]; 0.1 µM 60 min before CK cocktail 48 h): 78% ± 3.5 | cell viability ([2]; 1 µM 60 min before CK cocktail 48 h): no significant decrease in cell viability

Nc1nc(NCCc2ccc(O)cc2)nc2nc(-c3ccco3)nn12 [ZM241385, reference compound]
cell viability vs. control ([1]; 0.01 µM, absence of CK cocktail (reference used at 60 min)): 155% ± 1.9 | compensation of oxidative stress caused by the CK cocktail [3]: successfully compensated

N#CCNc1nc(Cl)nc2c1ncn2C1CCCC1 [compound 3, 2-((2-Chloro-9-cyclopentyl-9H-purin-6-yl)amino)acetonitrile]
Ki [4]: 7 ± 0.01 nM | cell vitality increase up to ([5]; 400 µM, after CK cocktail (Figure 3)): 93 ± 1.1% | counteraction of CK cocktail effect (cell viability) ([5]; 35, 65 and 400 µM, after CK cocktail): able to counteract the effect of the CK cocktail but to a lesser extent than compound 2 | Ki [6]: 118 ± 10 nM | % Residual Activity at 40 μM ± sd [7]: 86 ± 1.6% | CK1δ inhibition, in words [7]: inactive as a CK1δ inhibitor | IC50 [7]: > 40000 nM | Ki [8]: 140 ± 35 nM

Nc1nc(Cl)nc2c1nc(-c1ccco1)n2C1CCCC1 [compound 4, 2-chloro-9-cyclopentyl-8-(furan-2-yl)-9H-purin-6-amine]
Ki [4]: 3480 ± 312 nM | A2AAR antagonism, in words [4]: inactive as an A2AAR antagonist | Ki [6]: 8660 ± 1520 nM | viability at 25 µM ([2]; N13, 25 µM 60 min before CK cocktail 48 h, CK cocktail alone 78% 1.3 vs. control (Figure 7)): 108% | viability at 50 µM ([2]; N13, 50 µM 60 min before CK cocktail 48 h, CK cocktail alone 78% 1.3 vs. control): 102% | viability at 500 µM ([2]; N13, 500 µM 60 min before CK cocktail 48 h, CK cocktail alone 78% 1.3 vs. control): 90% | % Residual Activity at 10 μM ± sd ([7]; 10 μM): 13 ± 24% | % Residual Activity at 40 μM ± sd [7]: 25 ± 9.6% | IC50 [7]: 360 ± 100 nM | Ki [8]: 5960 ± 1020 nM
